Measured values from PMC4139006 (Pediatric blood & cancer, 2013).
Like-named read-outs stand apart in the source and are kept apart here.

What was measured:
[1] = tested on: low-grade glioma; details: single-agent temozolomide, cited from earlier work
[2] = Phase I dose escalation; type: in vivo, children; details: oral, days 1–5 every 28 days, VOR about one hour before TEM
[3] = tested on: medulloblastoma/PNETs; details: of 25 evaluable patients with medulloblastoma/PNETs; cited from earlier work
[4] = clinical; details: human, in vivo, po
[5] = human, in vivo
[6] = given continuously as a single daily dose; pediatric; cited from earlier work
[7] = systemically administered; cited from earlier work

SMILES | pediatric MTD and recommended phase II dosing for the combination of VOR and TEM [2] [mg/m^2/day] | half-life ([4]; 230 mg/m2, Half-life) [h] | AUC(0-inf) ([4]; 300 mg/m2, AUC0-∞) [ng·h/mL] | Cmax ([4]; 300 mg/m2, Cmax) [ng/mL] | half-life ([4]; 300 mg/m2, Half-life) [h] | Cmax ([5]; po, 300 mg/m2) | half-life ([5]; po, 300 mg/m2) | further results
Cn1nnc2c(C(N)=O)ncn2c1=O [TEM, Temozolomide] | 150 |  |  |  |  |  |  | patients having prolonged stable disease ([1]; adults): 30%; response rates ([1]; adults): 50–60%; median progression-free survival (PFS) [1]: 22–28 months; complete or partial responses, patients [3]: 4
O=C(O)CCC(=O)Nc1ccccc1 [4-anilino-4-oxobutanoic acid, 4-anilino-4-oxobutanoic acid] |  | 10.4 | 7490 | 750 | 9.18 | 814 (588 – 832) ng/ml | 9.19 (6.49 – 11.6) hrs | AUC(0-inf) ([4]; 230 mg/m2, AUC0-∞): 6900 ng·h/mL; Cmax ([4]; 230 mg/m2, Cmax): 490 ng/mL; Tmax ([4]; 230 mg/m2, Tmax): 3 h; Tmax ([4]; 300 mg/m2, Tmax): 4 h; AUC0-∞ ([5]; po, 300 mg/m2): 9590 (7150 – 16600) ng/ml*hr; Tmax ([5]; po, 300 mg/m2): 2.00 (0.88 – 6.00) hrs
O=C(CCCCCCC(=O)Nc1ccccc1)NO [VOR, suberoylanilide hydroxamic acid] | 300 | 2.61 | 1790 | 422 | 2.62 | 578 (200 – 821) ng/ml | 2.80 (2.23 – 5.90) hrs | MTD of single-agent oral VOR [6]: 230 mg/m^2/day; time to maximum concentration [5]: 2 h; Cmax ([5]; po, 230 mg/m2): 390 (221 – 655) ng/ml; blood brain barrier crossing [7]: crosses the blood brain barrier
